Source: PMC5786431 (Journal of medicinal chemistry, 2017)

Experiments:
[1] = Plasma concentration after oral administration; format: in vivo, mice; details: 100 mg/kg in 0.5% CMC suspension p.o.; 0.5 and 4 h; among 14b, 14g, 24a, 24c, 28a, 28c
[2] = intramuscular injection; cited from earlier work

plasma levels [1] | Structure (SMILES) | lag to reach steady-state concentrations [2]
highest plasma levels | Cc1ccc(C(=O)c2sc3cc(O)ccc3c2Oc2ccc(/C=C/C(=O)O)cc2)c(C)c1 [Compound 28a, (E)-3-(4-((2-(2,4-dimethylbenzoyl)-6-hydroxybenzo[b]thiophen-3-yl)oxy)phenyl)acrylic acid] | –
– | C[C@]12CC[C@@H]3c4ccc(O)cc4C[C@@H](CCCCCCCCC[S+]([O-])CCCC(F)(F)C(F)(F)F)[C@H]3[C@@H]1CC[C@@H]2O (stereo partly shown) [Compound 1, fulvestrant] | 3–6 month
highest plasma levels | Cc1cc(Cl)cc(C)c1C(=O)c1sc2cc(O)ccc2c1Oc1ccc(/C=C/C(=O)O)cc1 [Compound 28c, (E)-3-(4-((2-(4-chloro-2,6-dimethylbenzoyl)-6-hydroxybenzo[b]thiophen-3-yl)oxy)phenyl)acrylic acid] | –
highest plasma levels | Cc1cc(F)cc(C)c1C(=O)c1sc2cc(O)ccc2c1Oc1ccc(/C=C/C(=O)O)cc1 [Compound 24c] | –
